In ChEMBL document CHEMBL1201862, “PubChem BioAssay data set” (2004):
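Protocol summary: plate cells (96-well), add compound at 5 concentrations, incubate 48 h, interpolate endpoints linearly. GI50 marks 50% less growth.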 Calls of active or inactive are those of the source. Cut-off read from the data, not from the text of the source: active = GI50 up to about 1.1 µM and inactive = higher.

Experiments:
Experiment in all cases: inhibition of tumour cell growth, NCI panel, 48 h
[1] = test system: 786-0
[2] = test system: A549
[3] = test system: ACHN
[4] = test system: BT-549
[5] = test system: CAKI-1
[6] = test system: CCRF-CEM
[7] = test system: COLO 205
[8] = test system: DU-145
[9] = test system: EKVX
[10] = test system: HCC 2998
[11] = test system: HCT-116
[12] = test system: HCT-15
[13] = test system: HL-60
[14] = test system: HOP-62
[15] = test system: HOP-92
[16] = test system: HT-29
[17] = test system: Hs-578T
[18] = test system: IGROV-1
[19] = test system: K562
[20] = test system: KM12
[21] = test system: LOX IMVI
[22] = test system: M14
[23] = test system: MCF7
[24] = test system: MDA-MB-231
[25] = test system: MDA-MB-435
[26] = test system: MOLT-4
[27] = test system: Malme-3M
[28] = test system: NCI-H23
[29] = test system: NCI-H460
[30] = test system: NCI-H522
[31] = test system: NCI/ADR-RES
[32] = test system: OVCAR-3
[33] = test system: OVCAR-4
[34] = test system: OVCAR-5
[35] = test system: OVCAR-8
[36] = test system: PC-3
[37] = test system: RPMI-8226
[38] = test system: RXF 393
[39] = test system: SF-268
[40] = test system: SF-295
[41] = test system: SF-539
[42] = test system: SK-MEL-28
[43] = test system: SK-MEL-5
[44] = test system: SK-OV-3
[45] = test system: SN12C
[46] = test system: SNB-19
[47] = test system: SR
[48] = test system: SW-620
[49] = test system: T47D
[50] = test system: TK-10
[51] = test system: U-251
[52] = test system: UACC-257
[53] = test system: UACC-62
[54] = test system: UO-31
[55] = test system: NCI-H226
[56] = test system: SK-MEL-2
[57] = test system: SNB-75

CSCCCNC(=O)c1csc(-c2csc(CCN)n2)n1
GI50 [1]: > 100 µM (inactive)
GI50 [2]: > 100 µM (inactive)
GI50 [3]: > 100 µM (inactive)
GI50 [4]: > 100 µM (inactive)
GI50 [5]: > 100 µM (inactive)
GI50 [6]: 75.2 µM (inactive)
GI50 [7]: > 100 µM (inactive)
GI50 [8]: > 100 µM (inactive)
GI50 [9]: > 100 µM (inactive)
GI50 [10]: > 100 µM (inactive)
GI50 [11]: 84.5 µM (inactive)
GI50 [12]: 54.8 µM
GI50 [13]: > 100 µM (inactive)
GI50 [14]: > 100 µM (inactive)
GI50 [15]: > 100 µM (inactive)
GI50 [16]: 82.8 µM (inactive)
GI50 [17]: 56.8 µM (inactive)
GI50 [18]: 53.6 µM (inactive)
GI50 [19]: > 100 µM (inactive)
GI50 [20]: > 100 µM (inactive)
GI50 [21]: 59.7 µM (inactive)
GI50 [22]: > 100 µM (inactive)
GI50 [23]: 74.1 µM (inactive)
GI50 [24]: 52.5 µM (inactive)
GI50 [25]: > 100 µM (inactive)
GI50 [26]: > 100 µM (inactive)
GI50 [27]: 43.8 µM (inactive)
GI50 [28]: > 100 µM (inactive)
GI50 [29]: 91 µM (inactive)
GI50 [30]: > 100 µM (inactive)
GI50 [31]: > 100 µM (inactive)
GI50 [32]: > 100 µM (inactive)
GI50 [33]: > 100 µM (inactive)
GI50 [34]: 49.4 µM (inactive)
GI50 [35]: > 100 µM (inactive)
GI50 [36]: > 100 µM (inactive)
GI50 [37]: 44.7 µM (inactive)
GI50 [38]: > 100 µM (inactive)
GI50 [39]: > 100 µM (inactive)
GI50 [40]: > 100 µM (inactive)
GI50 [41]: > 100 µM (inactive)
GI50 [42]: > 100 µM (inactive)
GI50 [43]: 93.1 µM (inactive)
GI50 [44]: > 100 µM (inactive)
GI50 [45]: 68.1 µM (inactive)
GI50 [46]: > 100 µM (inactive)
GI50 [47]: 91.4 µM (inactive)
GI50 [48]: > 100 µM (inactive)
GI50 [49]: 74.1 µM (inactive)
GI50 [50]: > 100 µM (inactive)
GI50 [51]: > 100 µM (inactive)
GI50 [52]: > 100 µM (inactive)
GI50 [53]: > 100 µM (inactive)
GI50 [54]: 38.6 µM (inactive)

Cc1cc(C(=O)CBr)c(CN2C(=O)c3ccccc3C2=O)c(=O)n1C
GI50 [1]: 21.8 µM (inactive)
GI50 [2]: 18.8 µM (inactive)
GI50 [3]: 8.47 µM (inactive)
GI50 [4]: 18.1 µM (inactive)
GI50 [5]: 20.6 µM (inactive)
GI50 [6]: 2.92 µM (inactive)
GI50 [7]: 8.43 µM (inactive)
GI50 [8]: 13.7 µM (inactive)
GI50 [9]: 2.21 µM (inactive)
GI50 [10]: 38.1 µM (inactive)
GI50 [11]: 66.1 µM (inactive)
GI50 [12]: 12.6 µM
GI50 [13]: 5.09 µM (inactive)
GI50 [14]: 47.4 µM (inactive)
GI50 [16]: 14.2 µM (inactive)
GI50 [17]: 15.2 µM (inactive)
GI50 [18]: 26.9 µM (inactive)
GI50 [19]: 3.19 µM (inactive)
GI50 [20]: 19.5 µM (inactive)
GI50 [21]: 12.9 µM (inactive)
GI50 [22]: 43.1 µM (inactive)
GI50 [23]: 17.9 µM (inactive)
GI50 [24]: 18.1 µM (inactive)
GI50 [25]: 20.3 µM (inactive)
GI50 [26]: 1.93 µM (inactive)
GI50 [27]: 19.4 µM (inactive)
GI50 [55]: 49.5 µM (inactive)
GI50 [28]: 80.4 µM (inactive)
GI50 [29]: 26.3 µM (inactive)
GI50 [30]: 16.1 µM (inactive)
GI50 [31]: 47.8 µM (inactive)
GI50 [32]: 17.2 µM (inactive)
GI50 [33]: 14.7 µM (inactive)
GI50 [34]: 24.9 µM (inactive)
GI50 [35]: 18.1 µM (inactive)
GI50 [36]: 17.2 µM (inactive)
GI50 [38]: 11 µM (inactive)
GI50 [39]: 24.4 µM (inactive)
GI50 [40]: 38.5 µM (inactive)
GI50 [41]: 16.2 µM (inactive)
GI50 [42]: 20.4 µM (inactive)
GI50 [56]: 27 µM (inactive)
GI50 [44]: > 100 µM (inactive)
GI50 [45]: 17.6 µM (inactive)
GI50 [46]: 33.3 µM (inactive)
GI50 [57]: 22.8 µM (inactive)
GI50 [47]: 1.64 µM (inactive)
GI50 [48]: 3.78 µM (inactive)
GI50 [49]: 25.5 µM (inactive)
GI50 [50]: 7.43 µM (inactive)
GI50 [51]: 12.7 µM (inactive)
GI50 [52]: 17 µM (inactive)
GI50 [53]: 16.6 µM (inactive)
GI50 [54]: 18.4 µM (inactive)
